Paper PMC9851200, “Multiparameter phenotypic screening for endogenous TFEB and TFE3 translocation identifies novel chemical series modulating lysosome function” (Autophagy, 2022)

What was measured:
Type in all cases: binding
[1] = molecular target: T1, kinases (KINOMEscan panel) (Homo sapiens, UniProt Q9H2K8); conditions: kinase TAOK3; NEW KINOMEscan
T1 sequence (Q9H2K8 1-898): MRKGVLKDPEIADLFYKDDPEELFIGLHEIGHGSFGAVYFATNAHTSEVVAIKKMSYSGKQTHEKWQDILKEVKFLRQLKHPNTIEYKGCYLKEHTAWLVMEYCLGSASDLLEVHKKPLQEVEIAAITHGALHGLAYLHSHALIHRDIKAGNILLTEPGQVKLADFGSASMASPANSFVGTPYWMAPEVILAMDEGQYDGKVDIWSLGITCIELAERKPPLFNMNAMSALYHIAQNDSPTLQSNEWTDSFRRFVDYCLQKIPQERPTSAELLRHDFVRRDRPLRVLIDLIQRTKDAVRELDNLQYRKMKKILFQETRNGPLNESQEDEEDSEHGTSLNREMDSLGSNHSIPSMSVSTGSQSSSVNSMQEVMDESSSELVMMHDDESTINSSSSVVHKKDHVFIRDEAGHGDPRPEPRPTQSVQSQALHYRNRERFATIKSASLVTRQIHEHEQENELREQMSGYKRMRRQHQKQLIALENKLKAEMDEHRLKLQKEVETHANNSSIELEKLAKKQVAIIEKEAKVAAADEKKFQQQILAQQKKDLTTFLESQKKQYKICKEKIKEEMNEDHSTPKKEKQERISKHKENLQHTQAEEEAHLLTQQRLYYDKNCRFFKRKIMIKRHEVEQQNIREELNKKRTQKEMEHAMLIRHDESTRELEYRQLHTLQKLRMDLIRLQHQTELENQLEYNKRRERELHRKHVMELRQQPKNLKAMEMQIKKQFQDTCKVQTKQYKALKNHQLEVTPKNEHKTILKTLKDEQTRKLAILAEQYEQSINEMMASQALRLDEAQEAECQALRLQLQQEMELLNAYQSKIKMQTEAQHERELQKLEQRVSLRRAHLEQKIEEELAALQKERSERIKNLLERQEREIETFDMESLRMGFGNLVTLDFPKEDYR

[2] = molecular target: kinases (KINOMEscan panel) (Homo sapiens, UniProt O95747); conditions: NEW KINOMEscan
[3] = molecular target: T2, kinases (KINOMEscan panel) (Homo sapiens, UniProt Q8NG66); conditions: NEW KINOMEscan
T2 sequence (Q8NG66 1-645): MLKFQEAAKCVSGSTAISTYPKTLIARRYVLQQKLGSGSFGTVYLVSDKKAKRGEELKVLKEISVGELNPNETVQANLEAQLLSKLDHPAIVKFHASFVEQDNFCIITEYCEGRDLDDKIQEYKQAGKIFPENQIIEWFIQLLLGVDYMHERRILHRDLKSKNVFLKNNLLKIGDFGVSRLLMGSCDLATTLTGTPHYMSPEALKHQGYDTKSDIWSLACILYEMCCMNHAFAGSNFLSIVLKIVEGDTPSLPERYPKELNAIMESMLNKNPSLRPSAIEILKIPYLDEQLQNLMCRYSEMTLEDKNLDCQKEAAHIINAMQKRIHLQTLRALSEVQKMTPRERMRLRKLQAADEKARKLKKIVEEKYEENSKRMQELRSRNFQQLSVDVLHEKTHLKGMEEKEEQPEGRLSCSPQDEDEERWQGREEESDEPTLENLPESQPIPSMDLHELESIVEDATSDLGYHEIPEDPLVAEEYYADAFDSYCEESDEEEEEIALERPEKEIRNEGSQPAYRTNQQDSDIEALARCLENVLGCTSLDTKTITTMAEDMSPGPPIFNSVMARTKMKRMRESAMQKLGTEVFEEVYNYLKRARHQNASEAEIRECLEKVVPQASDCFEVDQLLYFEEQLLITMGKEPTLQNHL

[4] = molecular target: kinases (KINOMEscan panel) (Homo sapiens, UniProt Q13523); conditions: PRPF4B; NEW KINOMEscan
[5] = molecular target: T3, kinases (KINOMEscan panel) (Homo sapiens, UniProt P51817); conditions: kinase PRKX; NEW KINOMEscan
T3 sequence (P51817 1-358): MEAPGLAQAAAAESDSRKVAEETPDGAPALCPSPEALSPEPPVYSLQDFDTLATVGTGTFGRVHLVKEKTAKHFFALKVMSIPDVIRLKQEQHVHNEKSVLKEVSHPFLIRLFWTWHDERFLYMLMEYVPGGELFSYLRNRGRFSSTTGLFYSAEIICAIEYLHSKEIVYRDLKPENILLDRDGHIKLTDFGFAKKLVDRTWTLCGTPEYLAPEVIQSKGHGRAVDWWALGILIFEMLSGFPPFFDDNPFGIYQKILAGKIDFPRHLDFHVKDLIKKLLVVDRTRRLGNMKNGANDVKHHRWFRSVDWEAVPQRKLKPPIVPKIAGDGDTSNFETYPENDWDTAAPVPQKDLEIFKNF

[6] = molecular target: T4, kinases (KINOMEscan panel) (Homo sapiens, UniProt Q8IVH8); conditions: NEW KINOMEscan
T4 sequence (Q8IVH8 1-894): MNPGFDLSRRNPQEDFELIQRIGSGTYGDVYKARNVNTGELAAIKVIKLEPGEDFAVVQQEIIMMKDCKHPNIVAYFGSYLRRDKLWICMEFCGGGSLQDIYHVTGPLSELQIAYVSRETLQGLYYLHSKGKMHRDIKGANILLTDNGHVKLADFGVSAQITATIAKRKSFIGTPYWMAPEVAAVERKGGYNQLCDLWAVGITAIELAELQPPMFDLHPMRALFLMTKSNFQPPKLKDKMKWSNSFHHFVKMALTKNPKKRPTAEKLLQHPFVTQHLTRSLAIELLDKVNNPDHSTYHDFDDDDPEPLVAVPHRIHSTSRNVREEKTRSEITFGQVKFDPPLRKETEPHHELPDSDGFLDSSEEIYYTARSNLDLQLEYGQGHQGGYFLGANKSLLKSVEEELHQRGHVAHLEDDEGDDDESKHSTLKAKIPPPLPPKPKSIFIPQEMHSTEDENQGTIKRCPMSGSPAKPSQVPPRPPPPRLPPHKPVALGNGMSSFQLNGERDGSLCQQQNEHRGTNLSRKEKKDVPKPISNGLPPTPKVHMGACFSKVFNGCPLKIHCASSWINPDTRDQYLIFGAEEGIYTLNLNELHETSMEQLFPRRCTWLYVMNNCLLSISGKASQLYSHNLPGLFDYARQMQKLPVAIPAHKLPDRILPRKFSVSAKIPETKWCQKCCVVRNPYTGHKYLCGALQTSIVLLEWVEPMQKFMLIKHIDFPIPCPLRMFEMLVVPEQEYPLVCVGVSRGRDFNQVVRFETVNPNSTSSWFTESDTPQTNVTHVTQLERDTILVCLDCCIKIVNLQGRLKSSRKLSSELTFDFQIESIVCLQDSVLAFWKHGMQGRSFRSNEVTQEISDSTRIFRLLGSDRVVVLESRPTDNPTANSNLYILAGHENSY

Sequence of kinases (KINOMEscan panel) (Homo sapiens, UniProt O95747) (O95747 whole entry): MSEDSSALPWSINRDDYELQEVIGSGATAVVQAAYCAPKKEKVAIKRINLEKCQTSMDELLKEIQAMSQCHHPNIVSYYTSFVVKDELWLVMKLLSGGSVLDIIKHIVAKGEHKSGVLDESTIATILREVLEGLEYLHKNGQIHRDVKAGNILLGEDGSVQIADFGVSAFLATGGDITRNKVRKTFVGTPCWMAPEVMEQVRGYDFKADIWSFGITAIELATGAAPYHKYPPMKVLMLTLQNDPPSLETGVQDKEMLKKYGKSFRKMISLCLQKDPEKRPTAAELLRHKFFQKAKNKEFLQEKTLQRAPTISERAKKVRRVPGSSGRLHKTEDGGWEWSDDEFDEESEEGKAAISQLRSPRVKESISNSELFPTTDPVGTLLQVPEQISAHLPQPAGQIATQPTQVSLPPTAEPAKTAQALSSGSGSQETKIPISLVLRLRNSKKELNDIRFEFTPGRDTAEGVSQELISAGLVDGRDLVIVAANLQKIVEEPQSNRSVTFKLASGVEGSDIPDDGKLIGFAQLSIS
Sequence of kinases (KINOMEscan panel) (Homo sapiens, UniProt Q13523) (Q13523 whole entry): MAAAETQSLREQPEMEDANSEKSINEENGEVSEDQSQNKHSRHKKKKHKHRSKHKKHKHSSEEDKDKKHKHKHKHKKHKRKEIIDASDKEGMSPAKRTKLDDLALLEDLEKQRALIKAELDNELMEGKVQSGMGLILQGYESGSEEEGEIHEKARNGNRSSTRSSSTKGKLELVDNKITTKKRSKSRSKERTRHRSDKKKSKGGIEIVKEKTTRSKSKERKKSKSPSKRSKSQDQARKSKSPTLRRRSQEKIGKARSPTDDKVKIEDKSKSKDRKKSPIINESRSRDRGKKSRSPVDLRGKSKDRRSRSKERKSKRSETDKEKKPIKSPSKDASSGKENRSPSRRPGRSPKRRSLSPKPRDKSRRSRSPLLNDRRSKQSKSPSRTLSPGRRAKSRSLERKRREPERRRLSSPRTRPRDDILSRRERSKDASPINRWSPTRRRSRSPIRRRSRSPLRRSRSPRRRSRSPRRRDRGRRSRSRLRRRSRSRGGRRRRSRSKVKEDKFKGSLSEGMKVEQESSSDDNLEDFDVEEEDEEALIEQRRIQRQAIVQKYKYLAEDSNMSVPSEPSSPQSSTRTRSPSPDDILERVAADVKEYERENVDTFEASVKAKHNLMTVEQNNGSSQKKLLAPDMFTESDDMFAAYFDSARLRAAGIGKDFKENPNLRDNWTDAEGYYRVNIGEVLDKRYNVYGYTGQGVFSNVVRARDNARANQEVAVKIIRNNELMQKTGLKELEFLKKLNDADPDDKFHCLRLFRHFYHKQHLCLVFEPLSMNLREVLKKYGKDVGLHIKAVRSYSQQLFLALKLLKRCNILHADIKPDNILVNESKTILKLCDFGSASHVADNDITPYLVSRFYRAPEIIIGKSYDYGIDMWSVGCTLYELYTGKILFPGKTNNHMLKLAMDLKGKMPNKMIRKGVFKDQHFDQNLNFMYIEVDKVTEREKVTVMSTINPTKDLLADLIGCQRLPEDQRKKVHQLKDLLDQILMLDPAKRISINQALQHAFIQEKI

Structure (SMILES) | KINOMEscan TAOK3 [1] | KINOMEscan OSXR1 [2] | KINOMEscan NEK11 [3] | KINOMEscan PRPF4B [4] | KINOMEscan PRKX [5] | KINOMEscan MAP4K3 [6]
Cc1cccc(-c2nc(N(C)c3ccc4ncsc4c3)c3ccccc3n2)n1 [NK-161] | 13 | 25 | 2 | 0 | 7 | 22
Cc1cccc(-c2nc(Nc3ccc4nn(C)cc4c3)c3ccccc3n2)n1 [NK167] | 4 | 11 | 0 | 0 | 0 | 20
